PubChem BioAssay (NCI)
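Dose response: 5 concentrations. Exposure: 48 h. Format: 96-well plates. Endpoint: linear interpolation; highest concentration if not reached. GI50 marks 50% less growth. TGI marks complete inhibition of growth.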

What was measured:
Test in all cases: DTP human tumour cell line panel, 48 h
786-0 renal = tested on: 786-0 renal
A498 renal = tested on: A498 renal
A549 NSCLC = tested on: A549 NSCLC
ACHN renal = tested on: ACHN renal
BT-549 breast = tested on: BT-549 breast
CAKI-1 renal = tested on: CAKI-1 renal
CCRF-CEM leukemia = tested on: CCRF-CEM leukemia
COLO 205 colon = tested on: COLO 205 colon
DU-145 prostate = tested on: DU-145 prostate
EKVX NSCLC = tested on: EKVX NSCLC
HCC-2998 colon = tested on: HCC-2998 colon
HCT-116 colon = tested on: HCT-116 colon
HCT-15 colon = tested on: HCT-15 colon
HL-60(TB) leukemia = tested on: HL-60(TB) leukemia
HOP-62 NSCLC = tested on: HOP-62 NSCLC
HS 578T breast = tested on: HS 578T breast
HT29 colon = tested on: HT29 colon
IGROV1 ovarian = tested on: IGROV1 ovarian
K-562 leukemia = tested on: K-562 leukemia
KM12 colon = tested on: KM12 colon
LOX IMVI melanoma = tested on: LOX IMVI melanoma
M14 melanoma = tested on: M14 melanoma
MALME-3M melanoma = tested on: MALME-3M melanoma
MCF7 breast = tested on: MCF7 breast
MDA-MB-231 breast = tested on: MDA-MB-231 breast
MDA-MB-435 = tested on: MDA-MB-435
MOLT-4 leukemia = tested on: MOLT-4 leukemia
NCI-H226 lung = tested on: NCI-H226 lung
NCI-H23 lung = tested on: NCI-H23 lung
NCI-H460 lung = tested on: NCI-H460 lung
NCI-H522 lung = tested on: NCI-H522 lung
NCI/ADR-RES ovarian = tested on: NCI/ADR-RES ovarian
OVCAR-3 ovarian = tested on: OVCAR-3 ovarian
OVCAR-4 ovarian = tested on: OVCAR-4 ovarian
OVCAR-5 ovarian = tested on: OVCAR-5 ovarian
OVCAR-8 ovarian = tested on: OVCAR-8 ovarian
PC-3 prostate = tested on: PC-3 prostate
RXF 393 renal = tested on: RXF 393 renal
SF-268 CNS = tested on: SF-268 CNS
SF-295 CNS = tested on: SF-295 CNS
SF-539 CNS = tested on: SF-539 CNS
SK-MEL-2 melanoma = tested on: SK-MEL-2 melanoma
SK-MEL-28 melanoma = tested on: SK-MEL-28 melanoma
SK-MEL-5 melanoma = tested on: SK-MEL-5 melanoma
SK-OV-3 ovarian = tested on: SK-OV-3 ovarian
SN12C renal = tested on: SN12C renal
SNB-19 CNS = tested on: SNB-19 CNS
SNB-75 CNS = tested on: SNB-75 CNS
SR leukemia = tested on: SR leukemia
SW-620 colon = tested on: SW-620 colon
T-47D breast = tested on: T-47D breast
TK-10 renal = tested on: TK-10 renal
U251 CNS = tested on: U251 CNS
UACC-257 melanoma = tested on: UACC-257 melanoma
UACC-62 melanoma = tested on: UACC-62 melanoma
UO-31 renal = tested on: UO-31 renal

With `Oc1ccc(/C=C/c2ccc(O)cc2)cc1` as the compound, how does the GI50 (786-0 renal) read?
Its GI50 is 2.17 µM.

And the TGI (786-0 renal)?
Its TGI is 7.93 µM.

And the GI50 (A498 renal)?
The GI50 was 10.3 µM.

What about the TGI (A498 renal) of the same compound?
Its TGI is 99.6 µM.

And the GI50 (A549 NSCLC)?
The GI50 was 2.69 µM.

What about the TGI (A549 NSCLC) of the same compound?
Its TGI is > 38.5 µM.

What about the GI50 (ACHN renal) of the same compound?
The GI50 was 1.25 µM.

And the TGI (ACHN renal)?
Its TGI is > 61.7 µM.

And the GI50 (BT-549 breast)?
The GI50 was 1.26 µM.

And the TGI (BT-549 breast)?
Its TGI is > 90 µM.

What about the GI50 (CAKI-1 renal) of the same compound?
The GI50 was 3.5 µM.

What about the TGI (CAKI-1 renal) of the same compound?
Its TGI is > 24.1 µM.

What about the GI50 (CCRF-CEM leukemia) of the same compound?
Its GI50 is 0.219 µM.

What about the TGI (CCRF-CEM leukemia) of the same compound?
Its TGI is 0.761 µM.

What about the GI50 (COLO 205 colon) of the same compound?
Its GI50 is > 55.1 µM.

And the TGI (COLO 205 colon)?
Its TGI is > 100 µM.

And the GI50 (DU-145 prostate)?
The GI50 was 3.84 µM.

What about the TGI (DU-145 prostate) of the same compound?
Its TGI is 44 µM.

And the GI50 (EKVX NSCLC)?
The GI50 was 9.15 µM.

What about the TGI (EKVX NSCLC) of the same compound?
The TGI was > 100 µM.

What about the GI50 (HCC-2998 colon) of the same compound?
The GI50 was 3.59 µM.

And the TGI (HCC-2998 colon)?
Its TGI is 18 µM.

What about the GI50 (HCT-116 colon) of the same compound?
The GI50 was 4.28 µM.

What about the TGI (HCT-116 colon) of the same compound?
Its TGI is > 100 µM.

And the GI50 (HCT-15 colon)?
The GI50 was 3.13 µM.

What about the TGI (HCT-15 colon) of the same compound?
Its TGI is > 100 µM.

What about the GI50 (HL-60(TB) leukemia) of the same compound?
The GI50 was 0.252 µM.

What about the TGI (HL-60(TB) leukemia) of the same compound?
The TGI was 0.738 µM.

What about the GI50 (HOP-62 NSCLC) of the same compound?
The GI50 was 5.59 µM.

And the TGI (HOP-62 NSCLC)?
Its TGI is > 96.5 µM.

And the GI50 (HS 578T breast)?
Its GI50 is 4.09 µM.

What about the TGI (HS 578T breast) of the same compound?
The TGI was > 83.9 µM.

What about the GI50 (HT29 colon) of the same compound?
Its GI50 is 29 µM.

And the TGI (HT29 colon)?
The TGI was > 100 µM.

And the GI50 (IGROV1 ovarian)?
The GI50 was 0.72 µM.

What about the GI50 (K-562 leukemia) of the same compound?
Its GI50 is 2.65 µM.

What about the TGI (K-562 leukemia) of the same compound?
The TGI was > 100 µM.

What about the GI50 (KM12 colon) of the same compound?
Its GI50 is 2.73 µM.

What about the TGI (KM12 colon) of the same compound?
The TGI was > 80.7 µM.

And the GI50 (LOX IMVI melanoma)?
The GI50 was 2.85 µM.

And the TGI (LOX IMVI melanoma)?
Its TGI is 20.4 µM.

What about the GI50 (M14 melanoma) of the same compound?
Its GI50 is 3.82 µM.

And the TGI (M14 melanoma)?
The TGI was 58.9 µM.

What about the GI50 (MALME-3M melanoma) of the same compound?
The GI50 was 18.1 µM.

What about the TGI (MALME-3M melanoma) of the same compound?
Its TGI is > 100 µM.

And the GI50 (MCF7 breast)?
The GI50 was 4.41 µM.

And the TGI (MCF7 breast)?
Its TGI is > 100 µM.

And the GI50 (MDA-MB-231 breast)?
The GI50 was 2.78 µM.

And the TGI (MDA-MB-231 breast)?
Its TGI is > 100 µM.

And the GI50 (MDA-MB-435)?
The GI50 was 6.64 µM.

And the TGI (MDA-MB-435)?
Its TGI is > 100 µM.

And the GI50 (MOLT-4 leukemia)?
The GI50 was 2.18 µM.

And the TGI (MOLT-4 leukemia)?
Its TGI is 45.1 µM.

And the GI50 (NCI-H226 lung)?
The GI50 was 5.63 µM.

What about the TGI (NCI-H226 lung) of the same compound?
Its TGI is > 100 µM.

What about the GI50 (NCI-H23 lung) of the same compound?
The GI50 was 3.82 µM.

What about the TGI (NCI-H23 lung) of the same compound?
The TGI was > 90.5 µM.

What about the GI50 (NCI-H460 lung) of the same compound?
The GI50 was 3.37 µM.

And the TGI (NCI-H460 lung)?
The TGI was > 100 µM.

And the GI50 (NCI-H522 lung)?
The GI50 was 0.465 µM.

And the TGI (NCI-H522 lung)?
The TGI was 1.71 µM.

What about the GI50 (NCI/ADR-RES ovarian) of the same compound?
Its GI50 is 3.25 µM.

And the TGI (NCI/ADR-RES ovarian)?
Its TGI is > 95.4 µM.

What about the GI50 (OVCAR-3 ovarian) of the same compound?
Its GI50 is 0.971 µM.

And the TGI (OVCAR-3 ovarian)?
Its TGI is > 92.1 µM.

And the GI50 (OVCAR-4 ovarian)?
The GI50 was 8.78 µM.

And the TGI (OVCAR-4 ovarian)?
Its TGI is > 100 µM.

What about the GI50 (OVCAR-5 ovarian) of the same compound?
The GI50 was 28.9 µM.

And the TGI (OVCAR-5 ovarian)?
The TGI was > 100 µM.

What about the GI50 (OVCAR-8 ovarian) of the same compound?
Its GI50 is 2.44 µM.

What about the TGI (OVCAR-8 ovarian) of the same compound?
The TGI was > 61.1 µM.

What about the GI50 (PC-3 prostate) of the same compound?
Its GI50 is 4.02 µM.

What about the TGI (PC-3 prostate) of the same compound?
Its TGI is > 100 µM.

What about the GI50 (RXF 393 renal) of the same compound?
The GI50 was 2.94 µM.

What about the TGI (RXF 393 renal) of the same compound?
The TGI was > 100 µM.

What about the GI50 (SF-268 CNS) of the same compound?
Its GI50 is 2.15 µM.

And the TGI (SF-268 CNS)?
The TGI was > 94.7 µM.

What about the GI50 (SF-295 CNS) of the same compound?
The GI50 was 5.91 µM.

What about the TGI (SF-295 CNS) of the same compound?
The TGI was > 84.7 µM.

And the GI50 (SF-539 CNS)?
Its GI50 is 2.45 µM.

And the TGI (SF-539 CNS)?
Its TGI is 8.8 µM.

What about the GI50 (SK-MEL-2 melanoma) of the same compound?
The GI50 was 9.79 µM.

And the TGI (SK-MEL-2 melanoma)?
Its TGI is > 89.2 µM.

What about the GI50 (SK-MEL-28 melanoma) of the same compound?
The GI50 was 30.1 µM.

What about the TGI (SK-MEL-28 melanoma) of the same compound?
The TGI was > 100 µM.

What about the GI50 (SK-MEL-5 melanoma) of the same compound?
Its GI50 is 3.04 µM.

What about the TGI (SK-MEL-5 melanoma) of the same compound?
Its TGI is > 68.3 µM.

What about the GI50 (SK-OV-3 ovarian) of the same compound?
Its GI50 is 16.1 µM.

What about the TGI (SK-OV-3 ovarian) of the same compound?
Its TGI is > 100 µM.

And the GI50 (SN12C renal)?
Its GI50 is 2.97 µM.

And the TGI (SN12C renal)?
The TGI was > 100 µM.

And the GI50 (SNB-19 CNS)?
Its GI50 is 18.2 µM.

And the TGI (SNB-19 CNS)?
Its TGI is > 100 µM.

What about the GI50 (SNB-75 CNS) of the same compound?
Its GI50 is 1.89 µM.

And the TGI (SNB-75 CNS)?
Its TGI is > 100 µM.

What about the GI50 (SR leukemia) of the same compound?
Its GI50 is 0.204 µM.

What about the TGI (SR leukemia) of the same compound?
Its TGI is 0.703 µM.

What about the GI50 (SW-620 colon) of the same compound?
The GI50 was 7.52 µM.

And the TGI (SW-620 colon)?
Its TGI is > 100 µM.

And the GI50 (T-47D breast)?
The GI50 was 5.7 µM.

And the TGI (T-47D breast)?
The TGI was > 100 µM.

What about the GI50 (TK-10 renal) of the same compound?
Its GI50 is 9.62 µM.

And the TGI (TK-10 renal)?
The TGI was > 100 µM.

And the GI50 (U251 CNS)?
The GI50 was 3.09 µM.

What about the TGI (U251 CNS) of the same compound?
The TGI was > 100 µM.

What about the GI50 (UACC-257 melanoma) of the same compound?
The GI50 was 18.6 µM.

What about the TGI (UACC-257 melanoma) of the same compound?
Its TGI is > 100 µM.

And the GI50 (UACC-62 melanoma)?
Its GI50 is 2.36 µM.

And the TGI (UACC-62 melanoma)?
Its TGI is 16.9 µM.

What about the GI50 (UO-31 renal) of the same compound?
The GI50 was 1.38 µM.

And the TGI (UO-31 renal)?
The TGI was > 100 µM.
